Structures can show the parent of a compound that is named as a salt.

Holding throughout (assay type): cell-based
The target in assay [1] is T1, ΔF508-CFTR (Homo sapiens, UniProt P13569, DEL508-508). Nature of the assay: iodide efflux assay in BHK cells expressing ΔF508-CFTR. Particulars: 24 h. Set-up: which was then ligated into full length pNUT-CFTR linearized using Hpa1 and Pml1; expressed in transfected cells. On the procedure: Experiments were performed by hand or with a robotic liquid handling system (BioRobot 8000, Qiagen, USA) using Qiagen 4.1 software. Cells were cultured in 24-well plates until they reached confluence in order to perform parallel experiments and comparison analysis. After treatment (or not) with a test compound, medium in each well was replaced with 1 ml of iodide loading buffer (in mM: 136 NaI, 3 KNO3, 2 Ca(NO3)2, 11 glucose and 20 Hepes pH 7.4) for 1 hour at 37° C. to permit the I′ to reach equilibrium. At the beginning of each experiment, the loading buffer was removed by aspiration and cells were washed eight times with efflux buffer (same as loading buffer except that NaI was replaced with 136 mM NaNO3) to remove extracellular I^− in each well. The loss of intracellular I^− was determined by removing the medium and replacing it with fresh efflux buffer every 1 min for up to 11 min. The first four aliquots were recovered at 1-minute intervals in an empty 24-well plate and used to establish a stable baseline in efflux buffer alone. A stimulation buffer (efflux buffer containing 50 μM genistein+10 μM forskolin) was then added and sampling continued with replacement by stimulation buffer. The iodide concentration of each aliquot was determined using an iodide-sensitive electrode (Orion Research Inc., Boston, Mass., USA or Ecomet) and converted to iodide content (i.e. the amount of iodide released during the 1 min interval). Curves were constructed by plotting concentration versus time. Data are presented as means±SEM.
T1 sequence (P13569 with tags, fused parts or gaps DEL508-508): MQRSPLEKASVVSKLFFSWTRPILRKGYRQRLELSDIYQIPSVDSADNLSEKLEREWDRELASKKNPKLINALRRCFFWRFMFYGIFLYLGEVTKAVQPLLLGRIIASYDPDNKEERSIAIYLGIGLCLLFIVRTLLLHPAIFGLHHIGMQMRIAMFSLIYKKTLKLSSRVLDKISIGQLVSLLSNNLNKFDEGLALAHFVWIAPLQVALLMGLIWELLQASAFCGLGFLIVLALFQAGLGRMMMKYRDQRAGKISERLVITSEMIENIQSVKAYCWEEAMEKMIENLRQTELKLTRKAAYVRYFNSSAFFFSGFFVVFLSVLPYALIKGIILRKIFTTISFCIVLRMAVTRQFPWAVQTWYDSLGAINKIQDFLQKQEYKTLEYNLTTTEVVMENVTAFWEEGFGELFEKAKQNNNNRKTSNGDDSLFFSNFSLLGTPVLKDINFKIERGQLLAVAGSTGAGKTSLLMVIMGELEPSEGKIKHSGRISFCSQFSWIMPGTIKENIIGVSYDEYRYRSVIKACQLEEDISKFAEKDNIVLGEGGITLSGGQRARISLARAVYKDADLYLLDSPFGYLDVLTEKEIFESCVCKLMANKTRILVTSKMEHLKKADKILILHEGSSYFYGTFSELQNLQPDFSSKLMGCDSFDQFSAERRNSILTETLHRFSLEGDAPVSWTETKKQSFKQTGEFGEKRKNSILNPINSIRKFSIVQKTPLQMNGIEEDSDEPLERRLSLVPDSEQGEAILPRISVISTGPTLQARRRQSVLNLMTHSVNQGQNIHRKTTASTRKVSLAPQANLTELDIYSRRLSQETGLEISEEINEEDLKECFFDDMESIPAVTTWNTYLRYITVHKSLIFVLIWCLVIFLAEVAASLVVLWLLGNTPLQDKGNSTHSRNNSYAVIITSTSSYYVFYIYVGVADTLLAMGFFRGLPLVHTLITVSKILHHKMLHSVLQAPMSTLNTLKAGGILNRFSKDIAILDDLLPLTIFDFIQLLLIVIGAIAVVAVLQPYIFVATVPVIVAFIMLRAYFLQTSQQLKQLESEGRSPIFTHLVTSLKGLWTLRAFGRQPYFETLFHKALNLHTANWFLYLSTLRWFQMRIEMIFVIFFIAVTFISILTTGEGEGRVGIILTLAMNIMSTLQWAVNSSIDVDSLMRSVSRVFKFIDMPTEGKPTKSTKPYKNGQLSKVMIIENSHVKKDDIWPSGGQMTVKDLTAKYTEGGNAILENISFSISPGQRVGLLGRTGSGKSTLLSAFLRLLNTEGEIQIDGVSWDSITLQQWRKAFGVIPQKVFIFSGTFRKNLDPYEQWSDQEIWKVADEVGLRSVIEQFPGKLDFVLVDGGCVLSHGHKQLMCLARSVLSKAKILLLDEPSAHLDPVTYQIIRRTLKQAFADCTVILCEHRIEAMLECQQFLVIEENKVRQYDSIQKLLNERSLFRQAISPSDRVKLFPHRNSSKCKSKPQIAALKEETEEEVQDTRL
Iodide effluxes were performed using a robotic liquid handling system (BioRobot 8000, Qiagen, Valencia, Calif.) and Qiagen 4.1 software. Cells were cultured to confluence in 24-well plates. After treatment (or not) with a test compound, the medium in each well was replaced with 1 ml of iodide loading buffer: 136 mM NaI, 3 mM KNO3, 2 mM Ca(NO3)2, 11 mM glucose, 20 mM Hepes, pH 7.4 with NaOH) and incubated for 1 h at 37° C. At the beginning of each experiment, the loading buffer was removed by aspiration and cells were washed eight times with 300 μl efflux buffer (same as loading buffer except that NaI was replaced with 136 mM NaNO3) to remove extracellular I^−. Efflux was measured by replacing the medium with 300 μl fresh efflux buffer at 1 min intervals for up to 11 min. The first four aliquots were used to establish a stable baseline, then buffer containing 10 μM forskolin+50 μM genistein was used to stimulate CFTR activity. Iodide concentration was measured in each aliquot (300 μl) using an iodide-sensitive electrode (Orion Research Inc., Boston, Mass.). Relative iodide efflux rate was calculated using the difference between maximum (peak) iodide concentration during stimulation and minimum iodide concentration before stimulation (in μM/min). […]

Assay [2] deals with T1, ΔF508-CFTR. Nature of the assay: iodide efflux assay in CFBE41o− airway epithelial cells. Particulars: compared with BHK. Also on record: expressed in transfected cells; host or cells: CFBE41o- (ΔF508/ΔF508) transduced with ΔF508-CFTR, TranzVector lentivirus, provided by J. P. Clancy. The method, then:
Experiments were performed by hand or with a robotic liquid handling system (BioRobot 8000, Qiagen, USA) using Qiagen 4.1 software. Cells were cultured in 24-well plates until they reached confluence in order to perform parallel experiments and comparison analysis. After treatment (or not) with a test compound, medium in each well was replaced with 1 ml of iodide loading buffer (in mM: 136 NaI, 3 KNO3, 2 Ca(NO3)2, 11 glucose and 20 Hepes pH 7.4) for 1 hour at 37° C. to permit the I′ to reach equilibrium. […] The loss of intracellular I^− was determined by removing the medium and replacing it with fresh efflux buffer every 1 min for up to 11 min. […] The iodide concentration of each aliquot was determined using an iodide-sensitive electrode (Orion Research Inc., Boston, Mass., USA or Ecomet) and converted to iodide content (i.e. the amount of iodide released during the 1 min interval). […]
Iodide effluxes were performed using a robotic liquid handling system (BioRobot 8000, Qiagen, Valencia, Calif.) and Qiagen 4.1 software. […] Efflux was measured by replacing the medium with 300 μl fresh efflux buffer at 1 min intervals for up to 11 min. […] Iodide concentration was measured in each aliquot (300 μl) using an iodide-sensitive electrode (Orion Research Inc., Boston, Mass.). […]

Assay [3] addresses T1, ΔF508-CFTR. Nature of the assay: short-circuit current (Isc) across CFBE41o− monolayers in Ussing chambers. Also on record: expressed in transfected cells; host or cells: CFBE41o- (ΔF508/ΔF508) transduced with ΔF508-CFTR, TranzVector lentivirus, provided by J. P. Clancy. As to conditions: 10 μM, 24 h. On the procedure:
Short-circuit current (Isc) was measured across monolayers in modified Ussing chambers. 1×10^6 CFBE41o^− cells were seeded onto 12-mm fibronectin-coated Snapwell inserts (Corning Incorporated, Life Sciences, New-York, N.Y.) and the apical medium was removed after 24 h. Transepithelial resistance was monitored using an EVOM epithelial voltohmmeter (World Precision Instruments, Sarasota, Fla.) and cells were used when the transepithelial resistance was 300-400 ohms·cm^2. In some experiments, F508del-CFBE41o^− monolayers were incubated at 29° C. or treated with glafenine at 37° C. for 24 h before being mounted in EasyMount chambers and voltage clamped using a VCCMC6 multichannel current-voltage clamp (Physiologic Instruments, San Diego, Calif.). The apical membrane conductance was functionally isolated by permeabilizing the basolateral membrane with 200 μg/ml nystatin and imposing an apical-to-basolateral Cl^− gradient. For these experiments the basolateral bathing solution contained (in mM) 1.2 NaCl, 115 Na-gluconate, 25 NaHCO3, 1.2 MgCl2, 4 CaCl2, 2.4, KH2PO4, 1.24 K2HPO4, 10 glucose (pH 7.4 with NaOH). The CaCl2 concentration was increased to 4 mM to compensate for the chelation of calcium by gluconate. The apical bathing solution contained (in mM) 115 NaCl, 25 NaHCO3, 1.2 MgCl2, 1.2 CaCl2, 2.4 KH2PO4, 1.24 K2HPO4, 10 mannitol (pH 7.4 with NaOH). […]

On to `O=C(OCC(O)CO)c1ccccc1Nc1ccnc2cc(Cl)ccc12` (stereo not shown) [Glafenine hydrochloride, 2-[(7-chloro-4-quinolinyl)amino]benzoic acid 2,3-dihydroxypropyl ester], for which the “increase of cAMP-stimulated iodide efflux response” value in assay [1] (10 μM, 10 μM forskolin+50 μM genistein, versus vehicle) is recorded as 3.3 fold. Also, the “concentration required for significant restoration of ΔF508-CFTR function” value in assay [1] (iodide efflux, BHK) fell in the range of 1 to 10 µM. Moreover, the “rescue of iodide efflux” value in assay [2] is reported as “more striking”. The “increase of forskolin+genistein-stimulated Isc compared with DMSO controls” value in assay [3] is listed as “about 2.5 fold”.

Values taken from patent US20110009351A1, “SCREENING ASSAY TO IDENTIFY CORRECTORS OF PROTEIN TRAFFICKING DEFECTS” (Traffick Therepeutics Inc., priority 2007, published 2011).
